We go through one compound from US9239334B2, “Fatty acid C16: 1N7-palmitoleate a lipokine and biomarker for metabolic status” (PRESIDENT AND FELLOWS OF HARVARD COLLEGE, priority 2008, dated 2016).

In one test the test system is SCD-1 promoter. Put plainly: SCD-1 promoter-driven luciferase reporter in FAO hepatoma cells. In kind it is cell-based, murine. The protocol:
This possibility was tested using several highly sensitive assays to probe the functional profile and activities of plasma lipids. SCD-1 was chosen as a target because it was determined previously that the suppression of hepatic SCD-1 activity is a major alteration in FABP-deficient mice under diet-induced or genetic obesity. Cao et al., 2006; Maeda et al., 2005. Hepatic SCD-1 expression is regulated by a variety of hormones and nutritional factors such as insulin, glucose, and polyunsaturated fatty acids (PUFAs). Ntambi & Miyazaki, 43 Prog. Lipid Res. 91-104 (2004). […] Chu et al., 26 Mol. Cell Biol. 6786-98 (2006); Ntambi, 40 J. Lipid Res. 1549-58 (1999). The 1.5 kb murine SCD-1 promoter was placed in front of a luciferase reporter and inserted into an adenovirus construct. FAO rat hepatoma cells infected with this adenovirus verified the responsiveness of this reporter to PUFA, consistent with previous observations (FIG. 15). Because this assay system was adapted to a microplate format, very small amounts of lipids were required for experimentation. This system allowed direct testing for the effects of lipids extracted from plasma of WT and FABP-deficient animals.
Lipids were extracted from whole plasma and applied to liver cells expressing the SCD-1 promoter reporter gene. […] To control for any difference in the amount of lipids extracted from plasma and to mimic the in vivo regulation of SCD-1 expression, mixtures of FFAs were generated with the same molar ratio detected in WT or FABP-deficient plasma lipids using the major fatty acids listed in FIG. 2C. […]
Samples of 200 μl serum were collected using heparin-coated glass tubes and spun at 13,000 g in a microcentrifuge to separate the plasma. […] Tissue protein lysates was separated with SDS-PAGE gels and phosphorylated or total proteins were detected with the following antibodies: phospho AKT Serine 473, AKT, insulin receptor, phospho-tyrosine (Santa Cruz Biotech.); IRS-1 and IRS-2 (Upstate); phospho-GSK and GSK (Cell Signaling Tech.); phospho-insulin receptor from (Calbiocbem). […]

For the next test, the system named is C2C12 cells. Nature of the test: Glucose uptake in C2C12 myotubes. The test is classed as cell-based. The text has this: FIG. 3H is the glucose uptake in C2C12 myotubes treated with insulin or palmitoleate. Top panel is immunoblotting of C2C12 cell lysates treated with insulin or palmitoleate using anti-Glut1 or Glut4 antibodies. *: p<0.05.
The effect of C16:1n7-palmitoleate on muscle insulin signaling was explored by pre-treating C2C12 myotubes with either palmitate or palmitoleate overnight and then stimulating the cells with insulin. […] Conversely, C16:1n7-palmitoleate had little effect on its own in this in vitro setting (FIG. 3G). When cells were co-treated with both palmitate and palmitoleate, however, palmitoleate rescued the palmitate-induced reduction in insulin-stimulated AKT phosphorylation. […] The mechanism of this increase is not, apparently, associated with alterations in the absolute levels of Glut1 and Glut4 proteins (FIG. 3H).

For test [1], the system named is MCP1, TNFalpha and IL6 expression in adipocyte fraction. Nature of the test: Cytokine expression in adipocyte fraction of epididymal fat pads. In kind it is cell-based, mice. The note with it: 500 μM for 2 hrs, compared to palmitate. The protocol:
FIGS. 16A and 16B present cytokine expression in adipocyte and stromal vascular fractions treated with fatty acids. Epidydamal fat pads were dissected from WT mice and separated into adioycte and stromal vascular fractions as described in Experimental Procedures. Each fraction was treated with palmitate or palmitoleate at 500 μM for 2 hrs. Gene expression was determined with quantitative real-time PCR.
Obesity is associated with low-grade inflammation and increased inflammatory activities in liver and adipose tissues contribute to the development of systemic insulin resistance. Hotamisligil, 444 Nature 860-67 (2006). The effect of plasma lipids on adipose tissue inflammatory responses was explored using explants of adipose tissue treated with lipids from WT or FABP^−/− mice. […] Because adipose tissue contains multiple cell populations in addition to fat cells, adipose tissue was separated into adipocytes and stromal vascular fractions, and each fraction treated with either palmitate or palmitoleate.

Entries after “also recorded” stand apart in the source; their conditions may differ.

For `CCCCCC/C=C\CCCCCCCC(=O)O` [palmitoleate, C16:1n7-palmitoleate], the “effect of palmitate on SCD-1 promoter” value in the test with SCD-1 promoter (cells treated with a mixture of palmitate and palmitoleate) was “antagonized”. For the same compound, the “SCD-1 promoter-driven reporter activity” value with SCD-1 promoter (hepatocytes (FAO) treated with a single fatty acid, 300 μM) is “negatively regulated; also recorded: comparable to arachidonic acid; also recorded: suppressed”. Moreover, in the test with C2C12 cells, the glucose uptake result is recorded as “stimulated glucose uptake into C2C12 cells to a level similar to insulin”. The “cytokine expression in adipocyte fractions” value in test [1] is listed as “suppressed”.
